In patent publication US11471430B2, “Sphingosine analogs and use thereof against bacterial lung infections” (Yeda Research and Development Co. Ltd., priority 2018, dated 2022):

Experiments:
P. aeruginosa strain 762 = P. aeruginosa strain 762 killing assay; type: cell-based; conditions: Pseudomonas aeruginosa; P. aeruginosa strain 762, 2 hours at 37° C., colonies counted
Procedure: Incubation of bacteria with the sphingosine analogs presented herein was carried out as follows. P. aeruginosa strain 762 was grown in LB medium at 37° C. until the early logarithmic phase (OD550 of 0.2). Bacteria were diluted in PBS (without Ca^+2 and Mg^+2) to a concentration of 5×10^3 CFU/ml. Stock solutions of sphingolipid analogs in 5 mM in 7.5% n-octyl-β-D-glucopyranoside (OGP) or in dimethyl sulfoxide (DMSO) were prepared by sonication and warming to 40° C. The sphingosine analogs presented herein were added to the bacteria (0.05-200 μM in 0.075% OGP or 1% DMSO). Bacteria were incubated with the sphingosine analogs presented herein for 2 hours at 37° C., and 200 μl of a bacteria solution plated on LB agar plates, incubated overnight at 37° C., and colonies counted.
The ability of the sphingo sine analogs presented herein to kill Pseudomonas aeruginosa in vitro, and based on the data shown below, concluded that the SPH analogs presented herein are highly efficient in killing bacteria. Compounds 791598 and 791577 were used as activity assay control references.
FIGS. 1A-D present comparative plots, showing the results of the P. aeruginosa strain 762 killing assay, conducted for sphingosine analogs presented herein.

CerS5 [1] = target: T1, CerS5 (Homo sapiens (Human), UniProt Q8N5B7); test: N-acylation by CerS5 using labeled palmitoyl CoA, relative to sphinganine; type: biochemical; conditions: for Rate of N-Acylation / Rate of N-Acylation (either pmol/mg/min or % of control): CerS5, labeled palmitoyl CoA; for Rate of N-Acylation: n=1-2; for N-Acylation using 14C labeled palmitoyl CoA: Yes/No, CerS5; for Rate of N-Acylation (% of control): control sphinganine = 100% acylation; for Rate of N-Acylation (either pmol/mg/min or % of control): unit not given
Procedure: (§1) N-acylation was determined by incubating homogenates with 15 μM dhSo, 20 μM defatted BSA and 0.01 uCi C16-[14C] acyl-CoA/46 μM C16 acyl-CoA in a final volume of 250 μl.
An additional assay determined whether the sphingosine analogs presented herein are N-acylated by CerS5 expressed, relative to sphinganine (control; 100% acylation), using labeled palmitoyl CoA (n=1-2).

CerS5 [2] = target: T1, CerS5; test: Inhibition of ceramide synthesis (CerS5) measured in vitro; type: biochemical
Procedure: (§2) Ceramide synthase assays were carried out as follows. Cell homogenates were incubated with 15 μM NBD-SPH, 20 μM defatted bovine serum albumin, and 50 μM fatty acyl CoA in a 20 μl reaction volume at 37° C. Reactions were terminated by addition of chloroform/methanol (1:2, v/v) and lipids extracted. Lipids were dried under N2, re-suspended in chloroform/methanol (9:1, v/v) and separated by TLC using chloroform/methanol/2M NH4OH (40:10:1, v/v/v) as the developing solvent. NBD-labelled lipids were visualized using a Typhoon 9410 variable mode imager and quantified by ImageQuantTL (GE Healthcare, Chalfont St Giles, UK).

CerS5 [3] = target: T1, CerS5; test: CerS5 activity/inhibition assay using NBD sphinganine; type: biochemical; conditions: read-out: CerS5 activity (percentage of control); for remaining activity at 25 µM: 25 μM compound; for remaining activity at 50 µM: 50 μM compound; for remaining activity at 75 µM: 75 μM compound
Procedure: as §2
Table 4 below presents the results for the CerS5 activity/inhibition assay using NBD sphinganine (given as percentage of control).

[4] = tested on: ceramide synthases (CerS); test: N-acylation by ceramide synthases using 14C labeled CoA; type: biochemical; conditions: 14C labeled CoA as a substrate; raw data not shown
Procedure: as §1
To determine whether the sphingosine analogs presented herein can be metabolized by ceramide synthases (CerS—natural sphingosine is a substrate for CerS), their N-acylation using ^14C labeled CoA as a substrate was examined.

P. aeruginosa = conditions: injected immediately prior to infection, or an hour after infection; cited from earlier work

T1 sequence (Q8N5B7 whole entry, species assumed): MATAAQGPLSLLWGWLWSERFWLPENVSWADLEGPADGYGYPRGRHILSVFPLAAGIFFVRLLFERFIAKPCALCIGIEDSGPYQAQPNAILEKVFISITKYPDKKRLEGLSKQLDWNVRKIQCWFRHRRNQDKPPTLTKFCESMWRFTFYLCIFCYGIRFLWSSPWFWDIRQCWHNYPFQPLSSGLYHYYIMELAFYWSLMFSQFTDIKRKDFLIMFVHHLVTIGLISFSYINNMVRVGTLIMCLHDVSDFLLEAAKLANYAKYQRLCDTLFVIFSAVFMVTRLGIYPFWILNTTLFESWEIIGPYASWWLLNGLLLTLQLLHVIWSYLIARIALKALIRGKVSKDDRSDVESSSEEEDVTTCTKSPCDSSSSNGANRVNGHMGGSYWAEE

SMILES	EC50 (P. aeruginosa strain 762) [nM]	Rate of N-Acylation (CerS5 [1]) [pmol/mg/min]	N-Acylation using 14C labeled palmitoyl CoA (CerS5 [1])	Rate of N-Acylation (% of control) (CerS5 [1])	CerS5 activity (% of control) (CerS5 [2])	Rate of N-Acylation (either pmol/mg/min or % of control) (CerS5 [1])	remaining activity at 25 µM (CerS5 [3]) [%]	remaining activity at 50 µM (CerS5 [3]) [%]	remaining activity at 75 µM (CerS5 [3]) [%]	N-acylation by CerS (substrate or not) [4]	P. aeruginosa infection in CF mice (P. aeruginosa)
CCCCCCCCCCCCCCC[C@H](O)[C@H](CO)N(C)C [Compound 791577]	> 2500	4.7 ± 2.4	No	(0.89% of control)	92.9 ± 28.7 % of control	–	–	–	–	–	–
CCCCCCCCCCCCCCC[C@H](O)[C@H](CN)N(C)C [Compound 791578]	1440 ± 760	55.0 ± 6.0	No	(10.39% of control)	90.2 ± 16.4 % of control	–	–	–	–	–	–
CCCCCCCCCCCCCCC[C@@H](N)[C@H](CN)N(C)C [Compound 791579]	580 ± 140	4.1 ± 3.0	No	(0.77% of control)	69.2 ± 8.9 % of control	–	–	–	–	–	–
CCCCCCCCCCCCCCC[C@H](N)[C@H](CN)N(C)C [Compound 791580]	390 ± 60	6.1 ± 2.6	No	(1.15% of control)	58.1 ± 20.1 % of control	–	–	–	–	–	–
CCCCCCCCCC/C=C/CCC(N)(O)CO (centres unmarked) [Compound 791581]	1090 ± 310	4.2 ± 4.5	No	(0.79% of control)	71.5 ± 19.0 % of control	–	–	–	–	–	–
CCCCCCCCCC/C=C/CCC(N)(N)CN [Compound 791582]	540 ± 180	14.4 ± 7.7	No	(2.72% of control)	68.2 ± 10.4 % of control	–	–	–	–	–	–
CCCCCCCCCCCCCCC[C@@H](O)[C@H](N)CN [Compound 791597]	890 ± 230	18.8 ± 12.3	No	(3.55% of control)	125.0 ± 31.1 % of control	–	–	–	–	–	–
CCCCCCCCCCCCCCC[C@H](N)[C@H](N)CN [Compound 791598]	990 ± 10	10.4 ± 10.1	No	(1.97% of control)	111.3 ± 34.9 % of control	–	–	–	–	–	–
CCCCCCCC/C=C\CCCCCCCC[C@@H](O)[C@H](N)CO [Compound 791601]	420 ± 50	144.6 ± 51.7	Yes	(27.32% of control)	88.5 ± 10.1 % of control	–	–	–	–	–	–
CCCCC/C=C\C/C=C\CCCCCCCC[C@H](O)[C@@H](N)CO [Compound 791602]	–	146.9 ± 0.0	Yes	(27.76% of control)	57.3 ± 12.2 % of control	–	–	–	–	–	–
CCCCCCCCCCCCCCNC(=O)[C@H](N)CN [Compound 791993]	940 ± 322	–	–	–	–	0.98 ± 0.09 pmol/mg/min or % of control	–	–	–	–	–
CCCCCCCCCCCCCCNC(=O)[C@@H](N)CN [Compound 791994]	1310 ± 400	–	Yes	–	–	25.42 ± 6.97 pmol/mg/min or % of control	–	–	–	–	–
CCCCCCCCCCCCc1ccc(NC(=O)[C@@H](N)CN)cc1 [Compound 791995]	870 ± 91	–	No	–	–	0.14 ± 0.004 pmol/mg/min or % of control	107 ± 24	119 ± 20.9	109 ± 26.9	not substrates for CerS	–
CCCCCCCCCCCCc1ccc(NC(=O)[C@H](N)CN)cc1 [Compound 791996]	810 ± 240	–	No	–	–	0.02 ± 0.003 pmol/mg/min or % of control	96.7 ± 12.8	104 ± 21.2	105 ± 13.9	not substrates for CerS	–
CCCCCCCCCCCCCCc1ccc(NC(=O)C(N)CN)cc1 (centres unmarked) [Compound 792205]	610 ± 200	–	No	–	–	5.21 ± 1.33 pmol/mg/min or % of control	98.5 ± 18.1	92.7 ± 19	59.4 ± 12.1	–	–
CCCCCCCCCCCCCCCCc1ccc(NC(=O)[C@@H](N)CN)cc1 [Compound 792206]	1120 ± 180	–	No	–	–	3.78 ± 0.24 pmol/mg/min or % of control	76.6 ± 12.8	–	125 ± 37.4	–	–
CCCCCCCCCCCCCCCCNC(=O)C(N)CN (centres unmarked) [Compound 792208]	720 ± 260	–	–	–	–	2.81 ± 1.06 pmol/mg/min or % of control	114 ± 21.4	81.9 ± 7.15	72.7 ± 5.76	–	–
CCCCCCCCCCCCCCCCCCNC(=O)C(N)CN (centres unmarked) [Compound 792209]	> 2500	–	No	–	–	–	–	–	–	–	–
CCCCCCCCCCCCc1ccc(NC(=O)C(O)CN)cc1 (centres unmarked) [Compound 792211]	260 ± 90	–	Yes	–	–	114.21 ± 3.11 pmol/mg/min or % of control	163 ± 37.9	73.5 ± 8.98	49.8 ± 26.6	–	–
CCCCCCCCCCCCc1ccc(NC(=O)[C@@H](N)CCN)cc1 [Compound 792212]	160 ± 70	–	No	–	–	2.77 ± 0.65 pmol/mg/min or % of control	163 ± 82.3	138 ± 59	119 ± 32.8	–	–
CCCCCCCCc1ccc(CCC(N)(CO)CO)cc1 [FTY720, fingolimod]	–	–	–	–	–	–	–	–	–	–	completely blocked
CCCCCCCCCCCCCCC[C@@H](O)[C@@H](N)CO [sphinganine, reference compound]	–	–	–	–	100 ± 0 % of control	–	–	–	–	–	–
CCCCCCCCCCCCC/C=C/[C@@H](O)[C@@H](N)CO [sphingosine]	–	–	–	–	–	–	–	–	–	–	completely blocked
